Values quoted from earlier work as cited in patent US20100105640A1, “Aromatase Inhibitors for Emergency Contraception” (priority 2005, published 2010).

Settings: Yuzpe n = 979, Levonorgestrel n = 977

Percent with symptom (95% confidence interval): Breast tenderness: 10.8%
Percent with symptom (95% confidence interval): Dizziness: 11.2%
Percent with symptom (95% confidence interval): Fatigue: 16.9%
Percent with symptom (95% confidence interval): Headache: 16.8%
Percent with symptom (95% confidence interval): Low abdominal pain: 17.6%
Percent with symptom (95% confidence interval): Nausea: 23.1%
Percent with symptom (95% confidence interval): Vomiting: 5.6%
Structure (SMILES): C#C[C@]1(O)CC[C@H]2[C@@H]3CCC4=CC(=O)CC[C@@H]4[C@H]3CC[C@@]21CC [Levonorgestrel, levonorgestrel]
Percent with symptom (95% confidence interval): All other adverse effects (mostly diarrhea and some irregular bleeding or spotting): 13.5%
